Results reported in patent US20220098320A1, “SENOLYTIC CAR-T CELLS TARGETING UPAR, A CELL SURFACE AND SECRETED […]” (MEMORIAL SLOAN KETTERING CANCER CENTER, priority 2019, published 2022).

What was measured:
[1] = system: suPAR; assay: CCl4-induced liver fibrosis: plasma suPAR; format: in vivo; details: CCl4-treated mice vs untreated controls; FIGS. 5B and 16D
Procedure: In vivo induction of liver fibrosis. C57BL/6J mice were treated twice a week with 12 consecutive intraperitoneal (i.p.) injections of 1 ml/kg carbon tetrachloride (CCl4) to induce liver fibrosis. For murine CAR T cell studies, cyclophosphamide (200 mg/kg) was administered 24 hours before T cell injection. Mice received 3×10^6 CAR^+ T cells or untransduced T cells and CCl4 was continuously administered at the same dose and interval after T cell injection until day 20 post CAR injection. Animals were sacrificed 48-72 h after the last CCl4 injection. NSG mice were treated twice a week with 8 consecutive i.p. injections of 1 ml/kg CCl4 to induce liver fibrosis. For human CAR T cell studies, mice received 0.5×10^6 CAR T cells or untransduced T cells and CCl4 was continued once a week after CAR T injection until day 10 post CAR administration, when animals were sacrificed 48-72 h after the last CCl4 injection. Venous blood was collected by facial vein puncture.
(§1) Detection of suPAR levels. suPAR levels from cell culture supernatant of murine plasma were evaluated by enzyme-linked immunosorbent assay (ELISA) according to the manufacturer's protocol (R&D systems, DY531 (mouse) or DY807 (human)).

[2] = system: suPAR; assay: doxorubicin-induced senescence in vivo: plasma suPAR by ELISA; set-up: species or system C57BL/6J mice; details: doxorubicin i.p. day 0 and day 10; blood at days 10 and 20; FIG. 7D
Procedure: In vivo induction of doxorubicin-Induced senescence. […] Venous blood was collected by facial vein puncture at days 10 and 20 after initial doxorubicin administration. Detection of suPAR levels. suPAR levels from cell culture supernatant of murine plasma were evaluated by enzyme-linked immunosorbent assay (ELISA) according to the manufacturer's protocol (R&D systems, DY531 (mouse) or DY807 (human)).

[3] = system: suPAR; assay: bleomycin-induced lung fibrosis: plasma suPAR; format: in vivo, NSG mice; details: intratracheal bleomycin; FIGS. 9C-9E
Procedure: as §1

**Q.** With `ClC(Cl)(Cl)Cl` [CCl4, carbon tetrachloride] as the compound, how does the “plasma suPAR levels” value [1] read?
**A.** elevation of plasma suPAR levels relative to untreated controls

**Q.** With `COc1cccc2c1C(=O)c1c(O)c3c(c(O)c1C2=O)C[C@@](O)(C(=O)CO)C[C@@H]3O[C@H]1C[C@H](N)[C@H](O)[C@H](C)O1` [doxorubicin] as the compound, how does the “plasma levels of suPAR” value [2] read?
**A.** time-dependent and dose-dependent correlation with the plasma levels of suPAR

**Q.** Which “plasma levels of suPAR” value [3] does the source give for bleomycin here?
**A.** Higher levels of suPAR
